From patent US20220363870A1, “Stain Resistant Additive” (Arxada AG, priority 2019, published 2022)
Several values for one entry are separate records, joined by “and”; a condition that tells them apart may be missing. Identical values can stand only once.

System: 4 algal species
Assay: Resistance of Paint Films to Algal Defacement (Modified ASTM Method D5589)
Type: cell-based
Design: key to 4 wk Rating / 10 wk Rating / 14 wk Rating: 0 showing no growth; 4 showing the highest growth
Conditions: for Average 4 week rating: paint of Example 1, scale 0-4
Method: Procedure (Modified ASTM Method D5589): • 1. Sample substrates are coated with the corresponding paint samples containing the targeted amount of additive and antimicrobial. • 2. Depending upon the test conditions, samples are subjected to UV, leaching conditions, standard conditions, or a combination thereof. Leaching was performed for up to 7 days and with or without up to 600 hr of QUV in a weathering chamber. • 3. 4 algal species are used and inoculated every 2 weeks, including up to 18 weeks. Fresh plates were replaced at weeks 4, 10, 14, and 18. • 4. Ratings are scored on a range of 0-4, with 0 showing no growth and 4 showing the highest growth.

In the case of `CCCCCCCCn1sccc1=O` [N-octylisothiazolinone], the “Average 4 week rating” value (Biocide 350 ppm + Additive 1,000 ppm) is reported as 3.7, the “Average 4 week rating” value (Biocide 350 ppm + Additive 3,000 ppm) is reported as 1.7 and the “Average 4 week rating” value (Biocide 350 ppm, no additive) is reported as 2.7. The “Average 4 week rating” value (Biocide 700 ppm + Additive 1,000 ppm) was 0.7, the “Average 4 week rating” value (Biocide 700 ppm + Additive 3,000 ppm) was 0.0 and the “Average 4 week rating” value (Biocide 700 ppm, no additive) was 1.0. The “Average 4 week rating” value (Biocide 1,050 ppm + Additive 1,000 ppm) was 0.0, the “Average 4 week rating” value (Biocide 1,050 ppm + Additive 3,000 ppm) was 0.0 and the “Average 4 week rating” value (Biocide 1,050 ppm, no additive) was 1.3.

In the case of Zinc pyrithione, the “4 wk Rating” value (Conc. 0.7% in paint of Example 1, algal growth rating 0-4, 4 wk) is reported as 0, the “10 wk Rating” value (Conc. 0.7% in paint of Example 1, algal growth rating 0-4, 10 wk) is reported as 0 and the “14 wk Rating” value (Conc. 0.7% in paint of Example 1, algal growth rating 0-4, 14 wk) is reported as 0. The “4 wk ZOI” value (Conc. 0.7% in paint of Example 1, zone of inhibition, 4 wk) was 15 and the “18 wk ZOI” value (Conc. 0.7% in paint of Example 1, zone of inhibition, 18 wk) was 0.

With “zinc di(ethyl 4,4,4-trifluoroacetoacetate) dihydrate [Additive]” the “Average 4 week rating” value (Additive 1,000 ppm, no biocide) was 3.7, the “Average 4 week rating” value (Additive 3,000 ppm, no biocide) was 2.0 and the “18 wk Rating” value (Conc. 0.3% in paint of Example 1, algal growth rating 0-4, 18 wk, dihydrate) was 3 and 2. The “4 wk ZOI” value (Conc. 0.3% in paint of Example 1, zone of inhibition, 4 wk) was 0, the “10 wk ZOI” value (Conc. 0.3% in paint of Example 1, zone of inhibition, 10 wk) was 0 and the “14 wk ZOI” value (Conc. 0.3% in paint of Example 1, zone of inhibition, 14 wk) was 0. The “18 wk ZOI” value (Conc. 0.3% in paint of Example 1, zone of inhibition, 18 wk) was 0.
